# Source: patent US20180153995A1, “USE OF ANTIMICROBIAL POLYMERS FOR RE-SENSITIZATION OF MICROORGANISMS UPON EMERGENCE OF RESISTANCE TO ANTI-MICROBIAL AGENTS” (Technion Research & Development Foundation Limited, priority 2008, published 2018)
# Where two headings read alike, the source gives them in different places.
# Tests used:
# [1] = system: MRSA 15903; assay: microbe, parasite or virus in culture; assay type: cell-based, Staphylococcus aureus
# Method in brief: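 Values are FIC indexes, summing each agent's MIC in combination divided by its MIC alone, for MRSA 15903. Interpretation: <0.5 clear re-sensitization, 0.5 to 4 marginal or none, >4 antagonistic.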
# [2] = system: S. aureus 15819; assay: Antibiotic MIC by microdilution with or without sub-MIC polymer; assay type: cell-based, Staphylococcus aureus; details: S. aureus 15819
# [3] = system: S. aureus 15877; assay: as above; assay type: cell-based, Staphylococcus aureus
# [4] = system: S. aureus 17314; assay: as above; assay type: cell-based, Staphylococcus aureus; details: S. aureus 17314
# [5] = system: E. coli 14384; assay: as above; assay type: cell-based, Escherichia coli; details: E. coli 14384
# Method in brief: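 OD 620 nm after 24 h at 37° C gave the inhibition of proliferation. Bacteria at 10^5 per ml were exposed to 2-fold serial antibiotic dilutions, with or without […].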
# [6] = system: E. coli 16327; assay: microbe, parasite or virus in culture
# [7] = system: E. coli 16329; assay type: cell-based, Escherichia coli; details: E. coli U-16329
# Method in brief: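 Bacterial suspensions (100 μl) were added to 100 μl of culture medium carrying 2-fold serially diluted antibiotic together with a fraction of the polymer's MIC, or to plain medium as control. Plates were incubated 24 hours at 37° C, and proliferation was read at 620 nm against calibration standards. Starting inoculum was 10^5 bacteria per ml.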
# [8] = system: E. coli 14182; assay: Antibiotic MIC by microdilution with or without sub-MIC polymer; assay type: cell-based, Escherichia coli
# [9] = system: S. maltophila 748; assay: as above; assay type: cell-based, Stenotrophomonas maltophila
# [10] = system: E. coli K-12 efflux knockout mutant; assay type: cell-based, Escherichia coli; details: E. coli AG100A (efflux−)
# Method in brief: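 Broth microdilution, inocula 10^5 bacteria/ml, 24 h at 37 °C. Growth read as OD620 against calibration standards.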
# [11] = system: E. coli K-12 resistant wild type; assay type: cell-based, Escherichia coli; details: E. coli AG100 (w.t.)
# [12] = system: S. aureus 43300; assay: Antibiotic MIC by microdilution with or without sub-MIC polymer; assay type: cell-based, Staphylococcus aureus
# [13] = +¼ MIC (1.6 μM) C12(5-ene)KKNC12KNH2
# [14] = +¼ MIC (1.6 μM) C12K(KNC12K)3NH2
# [15] = +⅓ MIC (2.1 μM) C12K(KNC12K)3NH2
# [16] = +¼ MIC (1.6 μM) C12K(KNC12K)2NH2
# [17] = +½ MIC (3.12 μM) C12K(KNC12K)2NH2
# [18] = +½ MIC (3.12 μM) C14(9-ene)KKNC12KNH2
# [19] = +⅓ MIC (2.1 μM) C12K(KNC12K)2NH2
# [20] = polymer at ¼ of its MIC (Table 16)
# [21] = polymer at ½ of its MIC (Table 16)
# [22] = polymer at ⅓ of its MIC (Table 16)
structure (smiles),measurement,setting,value
"CN(C)[C@@H]1C(O)=C(C(N)=O)C(=O)[C@@]2(O)C(O)=C3C(=O)c4c(O)cccc4[C@@](C)(O)[C@H]3C[C@@H]12 [Tetracycline, tetracycline]",MIC,"[1]; MRSA 15903, +¼ polymer MIC (1.6 μM) NC12(KNC12K)2NH2",0.5 µg/mL
same,MIC,"[1]; MRSA 15903, +½ polymer MIC (3.1 μM) NC12(KNC12K)2NH2",0.004 µg/mL
same,MIC,"[1]; MRSA 15903, +⅓ polymer MIC (2.1 μM) NC12(KNC12K)2NH2",0.25 µg/mL
same,"MIC, ¼ + MIC OAK","[1]; MRSA 15903, with C12K(KNC10K)3NH2 (SEQ ID NO: 10) at ¼ of its MIC",1 µg/mL
same,"MIC, ½ + MIC OAK","[1]; MRSA 15903, with C12K(KNC10K)3NH2 (SEQ ID NO: 10) at ½ of its MIC",0.25 µg/mL
same,"MIC, ⅓ + MIC OAK","[1]; MRSA 15903, with C12K(KNC10K)3NH2 (SEQ ID NO: 10) at ⅓ of its MIC",1 µg/mL
same,MIC,"[1]; S. aureus CI-15903, +polymer (¼ MIC) C12(5-ene)KKNC12KNH2",0.5 µg/mL
same,MIC,"[1]; S. aureus CI-15903, +polymer (½ MIC) C12(5-ene)KKNC12KNH2",0.06 µg/mL
same,MIC,"[1]; S. aureus CI-15903, +polymer (⅓ MIC) C12(5-ene)KKNC12KNH2",0.1 µg/mL
same,MIC,"[1]; Staphylococcus aureus, MRSA, 24 h, MRSA 15903, antibiotic alone (Table 22), read-out: MIC, Alone",1 µg/mL
same,MIC,"[1]; Staphylococcus aureus, MRSA, 24 h, MRSA 15903, antibiotic alone, read-out: MIC",0.5 µg/mL
same,MIC,"[1]; Staphylococcus aureus, MRSA, 24 h, S. aureus CI-15903, alone, read-out: MIC",0.5 µg/mL
same,Antibiotic MIC,[2]; [13],0.25 µg/mL
same,Antibiotic MIC,[2]; [14],0.5 µg/mL
same,Antibiotic MIC,[2]; +¼ MIC (1.6 μM) C12KKNC12KNH2,0.5 µg/mL
same,Antibiotic MIC,[2]; +½ MIC (3.12 μM) C12KKNC12KNH2,0.5 µg/mL
same,Antibiotic MIC,[2]; [15],0.25 µg/mL
same,Antibiotic MIC,[2]; +⅓ MIC (2.1 μM) C12KKNC12KNH2,0.5 µg/mL
same,Antibiotic MIC,"[2]; no polymer (None), Table 8",0.25 µg/mL
same,Antibiotic MIC,"[2]; no polymer (None), Table 11",0.5 µg/mL
same,Antibiotic MIC,"[2]; no polymer (None), Table 13",0.5 µg/mL
same,Antibiotic MIC,[3]; [13],1 µg/mL
same,Antibiotic MIC,[3]; +½ MIC (3.12 μM) C12(5-ene)KKNC12KNH2,0.5 to 1 µg/mL
same,Antibiotic MIC,[3]; +⅓ MIC (2.1 μM) C12(5-ene)KKNC12KNH2,1 µg/mL
same,Antibiotic MIC,"[3]; no polymer (None), Table 8",1 µg/mL
same,Antibiotic MIC,[4]; [16],0.25 µg/mL
same,Antibiotic MIC,[4]; +¼ MIC (1.6 μM) C12KKNC12KNH2,0.25 to 0.5 µg/mL
same,Antibiotic MIC,[4]; +¼ MIC (1.6 μM) C14(9-ene)KKNC12KNH2,0.25 µg/mL
same,Antibiotic MIC,[4]; [17],0.25 µg/mL
same,Antibiotic MIC,[4]; +½ MIC (3.12 μM) C12KKNC12KNH2,0.25 to 0.5 µg/mL
same,Antibiotic MIC,[4]; [18],0.25 µg/mL
same,Antibiotic MIC,[4]; [19],0.5 µg/mL
same,Antibiotic MIC,[4]; +⅓ MIC (2.1 μM) C12KKNC12KNH2,0.25 to 0.5 µg/mL
same,Antibiotic MIC,[4]; +⅓ MIC (2.1 μM) C14(9-ene)KKNC12KNH2,0.25 µg/mL
same,Antibiotic MIC,"[4]; no polymer (None), Table 9",0.25 µg/mL
same,Antibiotic MIC,"[4]; no polymer (None), Table 10",0.25 µg/mL
same,Antibiotic MIC,"[4]; no polymer (None), Table 11",0.25 to 0.5 µg/mL
same,Antibiotic MIC,"[4]; no polymer (None), Table 12",0.25 to 0.5 µg/mL
same,Antibiotic MIC,[5]; [18],32 µg/mL
same,Antibiotic MIC,[5]; +½ MIC C12K(NC8K)5NH2,32 to 64 µg/mL
same,"Antibiotic MIC in presence of C12K(NC8K)7NH2 (SEQ ID NO: 4), +½ MIC",[5]; polymer at ½ of its MIC,64 µg/mL
same,Antibiotic MIC,"[6]; E. coli 16327, +½ MIC (3.12 μM) C14(9-ene)KKNC12KNH2",32 µg/mL
same,"MIC, ½ + MIC OAK","[6]; E. coli U16327, with C12K(KNC10K)3NH2 (SEQ ID NO: 10) at ½ of its MIC",64 µg/mL
same,"Antibiotic MIC in presence of C12K(NC8K)7NH2 (SEQ ID NO: 4), +½ MIC","[6]; E. coli U-16327, polymer at ½ of its MIC",32 µg/mL
same,Antibiotic MIC,[7]; +½ MIC C12K(NC8K)5NH2,64 µg/mL
same,"Antibiotic MIC in presence of C12K(NC8K)7NH2 (SEQ ID NO: 4), +½ MIC",[7]; polymer at ½ of its MIC,32 to 64 µg/mL
same,Antibiotic MIC,[8]; +¼ MIC C12K(NC8K)5NH2,32 µg/mL
same,Antibiotic MIC,[8]; +½ MIC C12K(NC8K)5NH2,8 to 16 µg/mL
same,Antibiotic MIC,[8]; +⅓ MIC C12K(NC8K)5NH2,32 µg/mL
same,"Antibiotic MIC, None",[8]; antibiotic alone (Table 15),32 to 64 µg/mL
same,Antibiotic MIC,"[8]; no polymer (None), Table 14",32 to 64 µg/mL
same,"Antibiotic MIC in presence of C12K(NC8K)7NH2 (SEQ ID NO: 4), +¼ MIC",[8]; polymer at ¼ of its MIC,32 µg/mL
same,"Antibiotic MIC in presence of C12K(NC8K)7NH2 (SEQ ID NO: 4), +½ MIC",[8]; polymer at ½ of its MIC,8 to 16 µg/mL
same,"Antibiotic MIC in presence of C12K(NC8K)7NH2 (SEQ ID NO: 4), +⅓ MIC",[8]; polymer at ⅓ of its MIC,32 µg/mL
same,Antibiotic MIC,[9]; [14],64 µg/mL
same,Antibiotic MIC,[9]; +½ MIC (3.12 μM) C12K(KNC12K)3NH2,32 µg/mL
same,Antibiotic MIC,[9]; [15],64 µg/mL
same,"Antibiotic MIC, None",[10]; antibiotic alone (Table 16),0.5 µg/mL
same,"Antibiotic MIC, None",[10]; antibiotic alone (Table 17),0.5 µg/mL
same,"Antibiotic MIC in presence of C12K(NC8K)7NH2 (SEQ ID NO: 4), +¼ MIC",[10]; [20],0.5 µg/mL
same,"Antibiotic MIC in presence of C12K(NC8K)7NH2 (SEQ ID NO: 4), +½ MIC",[10]; [21],0.25 to 0.5 µg/mL
same,"Antibiotic MIC in presence of C12K(NC8K)7NH2 (SEQ ID NO: 4), +⅓ MIC",[10]; [22],0.5 µg/mL
same,"Antibiotic MIC in presence of C12K(NC8K)7NH2 (SEQ ID NO: 4), +¼ MIC",[11]; [20],1 to 2 µg/mL
same,"Antibiotic MIC in presence of C12K(NC8K)7NH2 (SEQ ID NO: 4), +½ MIC",[11]; [21],0.25 to 0.5 µg/mL
same,"Antibiotic MIC in presence of C12K(NC8K)7NH2 (SEQ ID NO: 4), +⅓ MIC",[11]; [22],0.5 µg/mL
same,Antibiotic MIC,[12]; [16],0.5 µg/mL
same,Antibiotic MIC,[12]; +¼ MIC (1.6 μM) C12KKNC12KNH2,0.5 µg/mL
same,Antibiotic MIC,[12]; +¼ MIC (1.6 μM) C16(9-ene)KKNC12KNH2,0.25 µg/mL
same,Antibiotic MIC,[12]; [17],0.5 µg/mL
same,Antibiotic MIC,[12]; +½ MIC (3.12 μM) C12KKNC12KNH2,0.5 µg/mL
same,Antibiotic MIC,[12]; [19],0.5 µg/mL
same,Antibiotic MIC,[12]; +⅓ MIC (2.1 μM) C12KKNC12KNH2,0.5 µg/mL
